Measured values from US6294521A, “Phosphosugars and phosphosugar-containing compounds having anti-inflammatory activity” (Australian National University, priority 1996, dated 2001).

Experiments:
[1] = system: mannose-6-phosphate receptor (insulin-like growth factor II or IGF-II receptor); assay: Competitive binding assay: uptake of fluorescein-labelled polysaccharide (PPME) by U937 monocytes; format: cell-based, human (U937 cell line); details: uptake of fluoresceinated-PPME (100 μg/ml), U937 cells, 60 minutes at 37° C.; FIG. 1
Excerpt: The novel mannoside 6-phosphates have similar affinities for the mannose-6-phosphate receptor (insulin-like growth factor II or IGF-II receptor) as the natural ligand, mannose-6-phosphate. In order to assess the binding of the novel mannoside 6-phosphates to the M6P receptor a competitive binding assay was used. In this assay a fluorescein-labelled, polysaccharide (PPME) which contains abundant mannose-6-phosphate groups, was used to detect uptake through the M6P receptor on human monocytes (U937 cell line). PPME was isolated and purified by the method of Bretthauer et al., (23) from the exopolysaccharide secreted by the yeast Pichia holstii. […]
The human monocyte cell line U937, which has a relatively high content of M6P receptors on its cell Surface (25), was obtained from the American Type Culture Collection (Rockville, Md.) and was maintained in RPMI 1640 medium (Gibco, Gaitersburg, Md.) supplemented with 2 mg/ml sodium bicarbonate, 0.2 mM glutamine, 30 μg/ml penicillin, 50 μg/ml streptamycin sulfate and 50 μg/ml neomycin sulfate and 10% foetal calf serum (FCS; Commonwealth Sarum Laboratories, Melbourne, Anstalia) at 37° C. […] Following incubations, the cells were washed twice with 10% FCS/RPMI and once with PBS and then fixed with 1% paraformaldehyde in PBS and analysed for fluorescence by flow cytometry. […]

[2] = Inhibition of passively-transferred EAE in rats, parenteral treatment; format: in vivo, Lewis rats; details: for inhibition of development of disease (EAE), in words: 8 hourly subcutaneous doses for seven days, 220 mg/kg/day (mannose-6-phosphate), 200 mg/kg/day (others); for % with clinical signs of EAE: n=5; for % with clinical signs of EAE / Mean Maximum clinical score: 220 mg/kg/day (mannose 6-P) or 200 mg/kg/day (others); for Mean Maximum clinical score: controls 2.8 (saline), 3.3 (PEG 200)
Experimental: International Patent PCT/AU89/00350 identified several simple phosphosugars which had potent anti-inflammatory activity against cell-mediated inflammatory diseases such as EAE. The novel mannose 6-phosphate derivatives of the present invention have improved pharmacodynamic and pharmacokinetic properties. Thus, some of these agents are effective against EAE when they are injected either subcutaneously or intraperitoneally in rats, whereas the parent substance, mannose-6-phosphate is ineffective when administered in this manner.
In this Example, some typical novel mannoside 6-phosphates of the present invention were compared with mannose-6-phosphate for their ability to inhibit the development of […] in rats. In this experiment, according to the method of Panitch and McFarlin (18), donor Lewis rats were immunised with 50 μg myelin basic protein in complete Freund's adjuvant and 10-12 days later the spleens from these rats were removed and made into a single cell suspension. Thus, these cells, 2×10^6 ml^-1, were cultured in RPMI medium with 5% fetal calf serum, 5×10^-5 M 2-mercaptoethanol, 2 mM L-glutamine plus 30 μg/ml penicillin, 50 μg/ml streptamycin sulfate. Con A was added at 2 μg ml^-1 and cultures were incubated at 37° C. in a humidified atmosphere of 5% CO2, 7% O2 and the balance N2. Cells were harvested after 72 hours, washed once wit Hanks balanced salt solution, and 70×10^6 viable cells were then transferred to naive Lewis rat recipients via a lateral tail vein in order to induce EAE.

[3] = experimental animals; EAE, adjuvant-induced arthritis, DTH; WO 90/01938; cited from earlier work
[4] = Delayed-type hypersensitivity (DTH) footpad swelling, sheep red blood cell antigen; format: in vivo, CBA mice; details: Table 2, q.i.d. s.c., n=5, mean, 220 mg/kg/day (mannose 6-phosphate) or 200 mg/kg/day (others); for inhibition at 220 mg/kg: Mus musculus, Erythrocyte; for % swelling: control = 100
[5] = Contact sensitivity to picryl chloride, ear swelling; format: in vivo, CBA female mice; details: n=5; for inhibition at 330 mg/kg/day: Mus musculus, sc, Table 3, 6 injections s.c.; for % swelling: Table 3, 330 mg/kg/day, 6 injections s.c., control = 100
Excerpt: Contact sensitivity is a type of delayed hypersensitivity which ours following exposure to sensitising agents including low molecular weight reactive chemical entities such as dinitro chlorobenzene (DNCB) and picryl chloride (19,21) as well as the sensitising agents found in poison ivy and poison oak (19). In sensitised individuals, in those having previously been exposed to the sensitising agent, inflammatory leucocytes migrate from the blood stream into the area immediately beneath the affected tissue producing induration which is a cardinal characteristic of the delayed-type hypersensitivity reaction (21). Thus, contact sensitivity is a well recognised cell-mediated inflammatory response. In the experiment outlined below the novel mannoside 6-phosphates were compared with mannose-6-phosphate for their ability to inhibit contact sensitivity induced by picryl chloride.
In this experiment twenty CBA female mice were sensitised to picqyl chloride after the method of Enander et al., (22) by applying 200 μl of picryl chloride solution (0.5% in 95% ethanol) to an area (approximately 2 cm^2) of their shaved abdomens. Seven days following sensitisation these animals were divided into four groups of five mice which bad been treated with either mannose-6-phosphate (55 mg/kg), methyl mannoside 6-phosphate (330 mg/kg) or decyl mannoside 6-phosphate (55 mg/kg) or saline (control) 30 minutes before they were challenged by applying 100 μl of picryl chloride solution (1% in 95% ethanol) to both sides of their left ears. Their right ears (control) were treated with 100 μl of 95% ethanol. Three and one half hours following challenge a second injection of drug or saline was given and this was repeated four times at 4 hour intervals. Four hours following the last injection the mice were anaesthetised (ether) and the contact sensitivity determined by comparing the thickness of the picryl chloride treated ears with those of the control ears. As shown in Table 3 the novel mannoside phosphates inhibited accumulation of inflammatory cells in challenged ears more effectively than mannose-6-phosphate.

[6] = Table 1, t.i.d. s.c., seven days

Row | inhibition of binding of the natural ligand, in words [1] | Structure (SMILES) | inhibition of development of disease (EAE), in words [2] | Mean Duration ([2]; Table 1, t.i.d. s.c., seven days, 220 mg/kg/day, saline control 4.1) | Mean day of onset ([2]; Table 1, t.i.d. s.c., seven days, 220 mg/kg/day, saline control 5.2) | % with clinical signs of EAE [2, 6] | Mean Maximum clinical score [2, 6] | effectiveness against EAE, in words ([2]; injected either subcutaneously or intraperitoneally in rats) | anti-inflammatory activity against cell-mediated inflammatory diseases, in words [3] | inhibition at 220 mg/kg [4] | % swelling [4] | inhibition at 330 mg/kg/day [5] | % swelling [5]
1 | effective inhibitor of binding | O=P(O)(O)OC[C@H]1OC(OCCCCCCOC2O[C@H](COP(=O)(O)O)[C@@H](O)[C@H](O)[C@@H]2O)[C@@H](O)[C@@H](O)[C@@H]1O (stereo partly drawn) [1,6-hexamethyene di(D-mannoside 6-phosphate)] | – | – | – | – | – | – | – | – | – | – | –
2 | – | O=P(O)(O)OC[C@H]1OC(O)[C@@H](O)[C@@H](O)[C@@H]1O (stereo partly drawn) [mannose-6-phosphate, D-mannose-6-phosphate, reference compound] | ineffective in inhibiting development of disease symptoms | 4.0 days | 5.2 days | 100% | 2.8 | ineffective | shown to have anti-inflammatory activity | 20% | 80% | 17% | 83%
3 | – | CCCCCCCCCCCCCCCCOC1O[C@H](COP(=O)(O)O)[C@@H](O)[C@H](O)[C@@H]1O (stereo partly drawn) [hexadecyl mannoside 6-P, hexadecyl D-mannoside 6-phosphate] | completely inhibited the development of disease | – | – | 0% | 0 | – | – | 80% | 20% | – | –
4 | – | O=P(O)(O)OC[C@H]1OC(OCCCCCCCCCCCCCCCCOC2O[C@H](COP(=O)(O)O)[C@@H](O)[C@H](O)[C@@H]2O)[C@@H](O)[C@@H](O)[C@@H]1O (stereo partly drawn) [1,16-hexadecamethylene di(D-mannoside 6-phosphate)] | completely inhibited the development of disease | – | – | 0% | 0 | – | – | – | – | – | –
5 | – | CCCCCCCCCCOC1O[C@H](COP(=O)(O)O)[C@@H](O)[C@H](O)[C@@H]1O (stereo partly drawn) [decyl mannoside 6-P, Decyl D-mannoside 6-phosphate] | completely inhibited the development of disease | – | – | 0% | 0 | – | – | 70% | 30% | 77% | 23%
6 | – | CO[C@H]1O[C@H](COP(=O)(O)O)[C@@H](O)[C@H](O)[C@@H]1O [methyl mannoside 6-P, Methyl α-D-mannoside 6-phosphate] | – | – | – | – | – | – | – | – | – | 50% | 50%
